Results as given in patent US20220380319A1 (Bial - R&D Investments, S.A., priority 2019, published 2022).
Converted amounts (≈) assume the structure as drawn.

Columns and labels:
[1] = Compound solubility in water
acid ceramidase = target: T1, acid ceramidase (Homo sapiens, UniProt Q13510); test: Acid ceramidase inhibition, biochemical fluorescent assay with cell lysates overexpressing acid ceramidase, substrate Rbm14-12; details: substrate Rbm14-12 6.3 μM, pH 4.5, 1 hr preincubation at RT
T1 construct: Cell lysates overexpressing acid ceramidase were used as the enzyme source; expressed in transfected cells
T1 sequence (Q13510 22-395): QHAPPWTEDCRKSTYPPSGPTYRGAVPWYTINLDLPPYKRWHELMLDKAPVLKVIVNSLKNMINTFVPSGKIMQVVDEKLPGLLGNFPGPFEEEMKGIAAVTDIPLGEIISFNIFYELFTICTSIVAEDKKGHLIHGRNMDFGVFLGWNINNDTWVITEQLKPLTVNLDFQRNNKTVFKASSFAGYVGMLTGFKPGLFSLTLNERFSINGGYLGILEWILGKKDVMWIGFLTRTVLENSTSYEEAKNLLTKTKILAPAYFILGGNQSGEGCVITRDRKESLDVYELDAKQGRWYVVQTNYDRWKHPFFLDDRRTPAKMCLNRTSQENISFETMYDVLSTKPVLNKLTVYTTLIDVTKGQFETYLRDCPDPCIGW
Outline: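 IC50 derived by four-parameter fitting of fluorescence (ex360 nm, em446 nm) produced after 1 hr in methanol/NaIO4/glycine stop buffer, pH 10.6. Reaction: 6.3 μM Rbm14-12, 1 hr RT, following 1 hr RT compound preincubation with 10 μg overexpressing-cell lysate protein in pH 4.5 NaAC/NaCl buffer.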

| solubility [1] | IC50 (acid ceramidase) | Compound |
| --- | --- | --- |
| 14.3 µg/mL (≈ 46.2 µM) | < 200 nM | CC(C)CCNC(=O)n1cnc2ccc(-c3cncnc3)cc21 [Example 103a, N-iso-Pentyl-6-(pyrimidin-5-yl)-1H-benzo[d]imidazole-1-carboxamide] |
| 11.9 µg/mL (≈ 38.5 µM) | < 200 nM | CC(C)CCNC(=O)n1cnc2cc(-c3cncnc3)ccc21 [Example 103b, N-iso-pentyl-5-(pyrimidin-5-yl)-1H-benzo[d]imidazole-1-carboxamide] |
| 17 µg/mL (≈ 64.8 µM) | 200 to 1000 nM | CC(C)CCNC(=O)n1c(=O)n(C)c2cccnc21 [Example 104, N-iso-Pentyl-1-methyl-2-oxo-1,2-dihydro-3H-imidazo[4,5-b]pyridine-3-carboxamide] |
| 17.4 µg/mL (≈ 66.3 µM) | > 1000 nM | CC(C)CCNC(=O)n1c(=O)n(C)c2ncccc21 [Example 105, N-iso-Pentyl-3-methyl-2-oxo-2,3-dihydro-1H-imidazo[4,5-b]pyridine-1-carboxamide] |
| 13.7 µg/mL (≈ 40.4 µM) | 200 to 1000 nM | COc1nc2ccc(-c3cncnc3)cc2n1C(=O)NCCC(C)C [Example 106, N-iso-Pentyl-2-methoxy-6-(pyrimidin-5-yl)-1H-benzo[d]imidazole-1-carboxamide] |
| 13.9 µg/mL (≈ 60.1 µM) | < 200 nM | CC(C)CCNC(=O)n1cnc2ccccc21 [Example 107, N-iso-Pentyl-1H-benzo[d]imidazole-1-carboxamide] |
| 31.7 µg/mL (≈ 96.5 µM) | 200 to 1000 nM | CCCCNC(=O)n1cnc2c(C3CCN(C)CC3)cc(C)cc21 [Example 107a] |
| 6.8 µg/mL (≈ 24.3 µM) | < 200 nM | Cc1ccc(CCNC(=O)n2cnc3ccccc32)cc1 [Example 108, N-(4-Methylphenethyl)-1H-benzo[d]imidazole-1-carboxamide] |
| 28.7 µg/mL (≈ 88.2 µM) | > 1000 nM | CCC(C)NC(=O)n1c(OC)nc2ccc(-c3cncnc3)cc21 (centres unmarked) [Example 109a, N-(sec-Butyl)-2-methoxy-6-(pyrimidin-5-yl)-1H-benzo[d]imidazole-1-carboxamide] |
| 32.4 µg/mL (≈ 99.6 µM) | > 1000 nM | CCC(C)NC(=O)n1c(OC)nc2cc(-c3cncnc3)ccc21 (centres unmarked) [Example 109b, N-(sec-butyl)-2-methoxy-5-(pyrimidin-5-yl)-1H-benzo[d]imidazole-1-carboxamide] |
| 18 µg/mL (≈ 53 µM) | > 1000 nM | CC(C)CCNC(=O)n1c(=O)n(C)c2ncc(-c3cccnc3)cc21 [Example 110, N-iso-Pentyl-3-methyl-2-oxo-6-(pyridin-3-yl)-2,3-dihydro-1H-imidazo[4,5-b]pyridine-1-carboxamide] |
| 6 µg/mL (≈ 17.1 µM) | < 200 nM | COc1nc2ccc(-c3cncnc3)cc2n1C(=O)NC1CCCCC1 [Example 111a, N-Cyclohexyl-2-methoxy-6-(pyrimidin-5-yl)-1H-benzo[d]imidazole-1-carboxamide] |
| 22 µg/mL (≈ 62.6 µM) | < 200 nM | COc1nc2cc(-c3cncnc3)ccc2n1C(=O)NC1CCCCC1 [Example 111b, N-cyclohexyl-2-methoxy-5-(pyrimidin-5-yl)-1H-benzo[d]imidazole-1-carboxamide] |
| 22.9 µg/mL (≈ 66.9 µM) | 200 to 1000 nM | Cc1cc(C2CCN(C)CC2)c2ncn(C(=O)NCCC(C)C)c2c1 [Example 112a] |
| 20 µg/mL (≈ 55.1 µM) | 200 to 1000 nM | CC(C)CCNC(=O)n1cnc2c(C3CCN(C)CC3)cc(Cl)cc21 [Example 112b] |
| 16.8 µg/mL (≈ 60.8 µM) | 200 to 1000 nM | CCOc1nc2ncccc2n1C(=O)NCCC(C)C [Example 114, 2-Ethoxy-N-iso-pentyl-1H-imidazo[4,5-b]pyridine-1-carboxamide] |
| 15.4 µg/mL (≈ 52.9 µM) | > 1000 nM | COc1cccc2c1nc(OC)n2C(=O)NCCC(C)C [Example 115, N-iso-Pentyl-2,4-dimethoxy-1H-benzo[d]imidazole-1-carboxamide] |
| 14.1 µg/mL (≈ 46.5 µM) | > 1000 nM | CCOc1nc2c(OC)cccc2n1C(=O)NCCC1CC1 [Example 116, N-(2-Cyclopropylethyl)-2-ethoxy-4-methoxy-1H-benzo[d]imidazole-1-carboxamide] |
| 23.4 µg/mL (≈ 80.3 µM) | 200 to 1000 nM | CCC(C)CNC(=O)n1c(OC)nc2c(OC)cccc21 (centres unmarked) [Example 117, 2,4-Dimethoxy-N-(2-methylbutyl)-1H-benzo[d]imidazole-1-carboxamide] |
| 21 µg/mL (≈ 66.4 µM) | 200 to 1000 nM | CC(C)CCNC(=O)n1cnc2c(N3CCOCC3)cccc21 [Example 118, N-iso-Pentyl-4-morpholino-1H-benzo[d]imidazole-1-carboxamide] |

| solubility [1] | IC50 (acid ceramidase) | Compound |
| --- | --- | --- |
| 21 µg/mL (≈ 66 µM) | < 200 nM | CC(C)CCNC(=O)n1c(OCCN(C)C)nc2ccccc21 [Example 120, 2-(2-(Dimethylamino)ethoxy)-N-iso-pentyl-1H-benzo[d]imidazole-1-carboxamide] |
| 22.6 µg/mL (≈ 87.2 µM) | 200 to 1000 nM | COc1cccc2c1ncn2C(=O)NCCC1CC1 [Example 121, N-(2-Cyclopropylethyl)-4-methoxy-1H-benzo[d]imidazole-1-carboxamide] |
| 0.04 µg/mL (≈ 0.0996 µM) | < 200 nM | COc1nc2cc(-c3cccnc3)cnc2n1C(=O)NCCCCc1ccccc1 [Example 122, 2-Methoxy-N-(4-phenylbutyl)-6-(pyridin-3-yl)-3H-imidazo[4,5-b]pyridine-3-carboxamide] |
| 0.6 µg/mL (≈ 1.85 µM) | > 1000 nM | CC(C)CNC(=O)n1c(=O)n(C)c2ccc(-c3cccnc3)cc21 [Example 123, N-iso-Butyl-3-methyl-2-oxo-6-(pyridin-3-yl)-2,3-dihydro-1H-benzo[d]imidazole-1-carboxamide] |
| 4 µg/mL (≈ 14.2 µM) | > 1000 nM | O=C(NCCc1ccccc1)n1c(=O)[nH]c2cccnc21 [Example 124, 2-Oxo-N-phenethyl-1H-imidazo[4,5-b]pyridine-3(2H)-carboxamide] |
| 6 µg/mL (≈ 17.6 µM) | 200 to 1000 nM | CSc1nc2cc(-c3cccnc3)cnc2n1C(=O)NCC(C)C [Example 125] |
| 6 µg/mL (≈ 20 µM) | < 200 nM | CC(C)CNC(=O)n1cnc2cc(-c3cncs3)ccc21 [Example 126a, N-iso-Butyl-5-(thiazol-5-yl)-1H-benzo[d]imidazole-1-carboxamide] |
| 14 µg/mL (≈ 46.6 µM) | 200 to 1000 nM | CC(C)CNC(=O)n1cnc2ccc(-c3cncs3)cc21 [Example 126b, N-iso-butyl-6-(thiazol-5-yl)-1H-benzo[d]imidazole-1-carboxamide] |
| 23 µg/mL (≈ 74.1 µM) | 200 to 1000 nM | CCn1c(=O)n(C(=O)NCCc2ccccc2)c2ncccc21 [Example 127, 1-Ethyl-2-oxo-N-phenethyl-1H-imidazo[4,5-b]pyridine-3(2H)-carboxamide] |
| 15 µg/mL (≈ 56.3 µM) | < 200 nM | [2H]c1nc2ccccc2n1C(=O)NCCc1ccccc1 [Example 128, N-Phenethyl-1H-benzo[d]imidazole-2-d-1-carboxamide] |
| 1.3 µg/mL (≈ 4.08 µM) | < 200 nM | N#Cc1cccc2c1ncn2C(=O)NCCCCc1ccccc1 [Example 130, 4-Cyano-N-(4-phenylbutyl)-1H-benzo[d]imidazole-1-carboxamide] |
| 5 µg/mL (≈ 15.6 µM) | < 200 nM | N#Cc1cccc2c1ncn2C(=O)NCCCOc1ccccc1 [Example 131, 4-Cyano-N-(3-phenoxypropyl)-1H-benzo[d]imidazole-1-carboxamide] |
| 0.2 µg/mL (≈ 0.54 µM) | < 200 nM | COc1cc(N2CCCCC2)c2ncn(C(=O)NCCCCC3CC3)c2c1 [Example 132, N-(4-Cyclopropylbutyl)-6-methoxy-4-(piperidin-1-yl)-1H-benzo[d]imidazole-1-carboxamide] |
| 1 µg/mL (≈ 2.45 µM) | < 200 nM | COc1nc2ccc(N3CCOCC3)cc2n1C(=O)NCCCCc1ccccc1 [Example 133a, 2-Methoxy-6-morpholino-N-(4-phenylbutyl)-1H-benzo[d]imidazole-1-carboxamide] |
| 2 µg/mL (≈ 4.9 µM) | < 200 nM | COc1nc2cc(N3CCOCC3)ccc2n1C(=O)NCCCCc1ccccc1 [Example 133b, 2-methoxy-5-morpholino-N-(4-phenylbutyl)-1H-benzo[d]imidazole-1-carboxamide] |
| 17 µg/mL (≈ 43.1 µM) | < 200 nM | COc1nc2ccc(N3CCOCC3)cc2n1C(=O)NCCCc1ccccc1 [Example 134a, 2-Methoxy-6-morpholino-N-(3-phenylpropyl)-1H-benzo[d]imidazole-1-carboxamide] |
| 16 µg/mL (≈ 40.6 µM) | < 200 nM | COc1nc2cc(N3CCOCC3)ccc2n1C(=O)NCCCc1ccccc1 [Example 134b, 2-methoxy-5-morpholino-N-(3-phenylpropyl)-1H-benzo[d]imidazole-1-carboxamide] |
| 15 µg/mL (≈ 40.5 µM) | < 200 nM | COc1nc2cccnc2n1C(=O)NCCCCn1ccc(C(C)(C)C)n1 [Example 135a, N-(4-(3-(tert-Butyl)-1H-pyrazol-1-yl)butyl)-2-methoxy-3H-imidazo[4,5-b]pyridine-3-carboxamide] |
| 21 µg/mL (≈ 49.9 µM) | < 200 nM | COc1cc(C2CCN(C)CC2)c2ncn(C(=O)NCCCCc3ccccc3)c2c1 [Example 136, 6-Methoxy-4-(1-methylpiperidin-4-yl)-N-(4-phenylbutyl)-1H-benzo[d]imidazole-1-carboxamide] |

| Compound | solubility [1] | IC50 (acid ceramidase) |
| --- | --- | --- |
| CC(C)CCNC(=O)n1cnc2c(N3CCN(C)CC3)cccc21 [Example 119, N-iso-Pentyl-4-(4-methylpiperazin-1-yl)-1H-benzo[d]imidazole-1-carboxamide] | 23 µg/mL (≈ 69.8 µM) | 200 to 1000 nM |
